From ChEMBL document CHEMBL1240448, “Synthesis of N-methyl-bisindolylmaleimide amino acid methyl ester conjugates and cytotoxicity study” (Eur J Med Chem, 2010)

Assays:
HCT-8 = assay: Cytotoxicity against human HCT8 cells after 96 hrs by MTT assay; settings: HCT-8, 96 h
MCF7 = assay: Cytotoxicity against human MCF7 cells after 96 hrs by MTT assay; settings: MCF7, 96 h
A549 = assay: Cytotoxicity against human A549 cells after 96 hrs by MTT assay; settings: A549, 96 h
A2780 = assay: Cytotoxicity against human A2780 cells after 96 hrs by MTT assay; settings: A2780, 96 h
BGC-823 = assay: Cytotoxicity against human BGC823 cells after 96 hrs by MTT assay; settings: BGC-823, 96 h
Bel-7402 = assay: Cytotoxicity against human Bel7402 cells after 96 hrs by MTT assay; settings: Bel-7402, 96 h

Compound | IC50 (HCT-8) [µM] | IC50 (MCF7) [µM] | IC50 (A549) [µM] | IC50 (A2780) [µM] | IC50 (BGC-823) [µM] | IC50 (Bel-7402) [µM]
COC(=O)CNC(=O)Cn1cc(C2=C(c3c[nH]c4ccccc34)C(=O)N(C)C2=O)c2ccccc21 | 22.9 | 36 | 78.3 | 33.9 | 88.4 | 28.4
COC(=O)[C@@H](CO)NC(=O)Cn1cc(C2=C(c3c[nH]c4ccccc34)C(=O)N(C)C2=O)c2ccccc21 | 22.9 | 24.5 | 37.9 | 23.2 | 28.9 | 67.2
COC(=O)CCNC(=O)Cn1cc(C2=C(c3c[nH]c4ccccc34)C(=O)N(C)C2=O)c2ccccc21 | 50.9 | 47.8 | 37.6 | 44.5 | 44.9 | 28.4
CC[C@H](C)[C@@H](NC(=O)Cn1cc(C2=C(c3c[nH]c4ccccc34)C(=O)N(C)C2=O)c2ccccc21)C(=O)OC | > 100 | > 100 | > 100 | > 100 | > 100 | > 100
COC(=O)[C@H](NC(=O)Cn1cc(C2=C(c3c[nH]c4ccccc34)C(=O)N(C)C2=O)c2ccccc21)C(C)C | 25.8 | 16 | 30.6 | 23.8 | 48.2 | 4.01
COC(=O)C(Cc1c[nH]c2ccccc12)NC(=O)Cn1cc(C2=C(c3c[nH]c4ccccc34)C(=O)N(C)C2=O)c2ccccc21 (single isomer, unassigned) | 9.19 | 4.83 | 45.2 | 5.39 | 3.73 | 4.11
COC(=O)C(Cc1ccccc1)NC(=O)Cn1cc(C2=C(c3c[nH]c4ccccc34)C(=O)N(C)C2=O)c2ccccc21 (single isomer, unassigned) | 72.4 | 95.3 | 88.1 | 77.9 | 98 | 96.7
COC(=O)C(Cc1ccc(O)c(O)c1)NC(=O)Cn1cc(C2=C(c3c[nH]c4ccccc34)C(=O)N(C)C2=O)c2ccccc21 (single isomer, unassigned) | > 100 | > 100 | > 100 | > 100 | > 100 | > 100
COC(=O)C(Cc1ccc(O)cc1)NC(=O)Cn1cc(C2=C(c3c[nH]c4ccccc34)C(=O)N(C)C2=O)c2ccccc21 (single isomer, unassigned) | 93.2 | 51.7 | > 100 | > 100 | > 100 | 28.1
COC(=O)C(C)NC(=O)Cn1cc(C2=C(c3c[nH]c4ccccc34)C(=O)N(C)C2=O)c2ccccc21 (single isomer, unassigned) | 21.4 | 15.3 | 30.5 | 15.8 | 60.4 | 9.34
COC(=O)C(CC(C)C)NC(=O)Cn1cc(C2=C(c3c[nH]c4ccccc34)C(=O)N(C)C2=O)c2ccccc21 (single isomer, unassigned) | 37.8 | 37.4 | > 100 | 38.5 | 45.5 | 42.4
COC(=O)CC(NC(=O)Cn1cc(C2=C(c3c[nH]c4ccccc34)C(=O)N(C)C2=O)c2ccccc21)C(=O)OC (single isomer, unassigned) | 23.4 | 25.8 | 74.2 | 15.4 | 24.6 | 9.36
COC(=O)CCC(NC(=O)Cn1cc(C2=C(c3c[nH]c4ccccc34)C(=O)N(C)C2=O)c2ccccc21)C(=O)OC (single isomer, unassigned) | 29.2 | 23.4 | 73.7 | 32.3 | 25 | 47.4
COC(=O)[C@H](NC(=O)Cn1cc(C2=C(c3c[nH]c4ccccc34)C(=O)N(C)C2=O)c2ccccc21)[C@@H](C)O (single isomer, unassigned) | 23.4 | 22.9 | 25.7 | 21.4 | 23.3 | > 100
